{
  "source": "patent US10821152B2",
  "about": "“Methods, agents and compositions for treatment of inflammatory conditions” (Betanien Hospital, priority 2014, dated 2020)",
  "assay_type_in_all_cases": "in vivo, human",
  "key": {"[1]": {"system": "patient with seropositive rheumatoid arthritis", "test": "Treatment of RA using Ganirelix", "experimental": "• person with seropositive rheumatoid arthritis with disease duration of 10 years. • Fulfilled ACR 2010 classification criteria for rheumatoid arthritis. Experimental Treatment • Had tried almost all available rheumatoid arthritis therapies available previously without effect. • Offered experimental GnRH antagonist therapy, Ganirelix 0.75 mg sc daily (0.25 mg sc three times a day) Assessment of Response at 4 Months • Disease activity score (DAS) reduction from 5.5 to 2.2 (remission). • A DAS reduction of 0.6 units is defined as a clinical response to treatment (1). • Their ESR decreased from 28 mm to 19 mm, with a normalization of their CRP from 23 mg/L to 5 mg/L. This is supported by the decrease in their anti-cyclic citrullinated peptide (CCP) antibodies from 27 u/mL. to 14 u/mL."}, "[2]": {"system": "patient with ulcerative colitis", "test": "GnRH antagonist treatment for colitis (Ganirelix)", "experimental": "• person with ulcerative colitis for the past 10 years Experimental Treatment • Is offered Ganirelix 2 mg daily for 6months Assessment of Response • By 6 months they experience clinical remission with a partial Mayo score reduction from 3 to 0."}, "[3]": {"system": "patient with tendonitis of the elbow", "test": "GnRH antagonist injection around tendon in tendonitis", "conditions": "1.5 mg injected around the affected tendon, 2 week post injection", "experimental": "• person diagnosed with tendonitis of the elbow with ultrasound confirming tendonitis. Experimental Treatment • Treated with an injection of GnRH antagonist, Ganirelix 1.5 mg, around the affected tendon. Assessment of Response • Before and 2 week post injection ultrasound images are taken to show a decrease in tendonitis of the elbow."}},
  "note": "Non-standard residues stand in square brackets, D forms with d. Residues, ends and D or L forms follow the SMILES beside them. d(hArg(Et2)) = CCN=C(NCC)NCCCC[C@@H](N)C(=O)O; hArg(Et2) = CCN=C(NCC)NCCCC[C@H](N)C(=O)O; dPhe(4-Cl) = N[C@H](Cc1ccc(Cl)cc1)C(=O)O; d2Nal = N[C@H](Cc1ccc2ccccc2c1)C(=O)O; d3Pal = N[C@H](Cc1cccnc1)C(=O)O",
  "data": [
    {"smiles": "CCN=C(NCC)NCCCC[C@H](NC(=O)[C@H](CC(C)C)NC(=O)[C@@H](CCCCNC(=NCC)NCC)NC(=O)[C@H](Cc1ccc(O)cc1)NC(=O)[C@H](CO)NC(=O)[C@@H](Cc1cccnc1)NC(=O)[C@@H](Cc1ccc(Cl)cc1)NC(=O)[C@@H](Cc1ccc2ccccc2c1)NC(C)=O)C(=O)N1CCC[C@H]1C(=O)N[C@H](C)C(N)=O", "note": "[Ganirelix] (Ac-[d2Nal][dPhe(4-Cl)][d3Pal]SY[d(hArg(Et2))]L[hArg(Et2)]P[dA]-NH2)", "values": [
      {"measurement": "CRP", "setting": "[1]; at 4 months", "result": 5, "unit": "mg/L"},
      {"measurement": "ESR", "setting": "[1]; at 4 months", "result": 19, "unit": "mm"},
      {"measurement": "anti-cyclic citrullinated peptide (CCP) antibodies", "setting": "[1]; at 4 months", "result": 14, "unit": "u/mL"},
      {"measurement": "rheumatoid factor level", "setting": "[1]; at 4 months", "result": 75, "unit": "kIU/L"},
      {"measurement": "Disease activity score (DAS)", "setting": "[1]; at 4 months, 0.75 mg sc daily (remission)", "result": 2.2},
      {"measurement": "CRP", "setting": "[1]; before Ganirelix", "result": 23, "unit": "mg/L"},
      {"measurement": "Disease activity score (DAS)", "setting": "[1]; before Ganirelix", "result": 5.5},
      {"measurement": "ESR", "setting": "[1]; before Ganirelix", "result": 28, "unit": "mm"},
      {"measurement": "anti-cyclic citrullinated peptide (CCP) antibodies", "setting": "[1]; before Ganirelix", "result": 27, "unit": "u/mL"},
      {"measurement": "rheumatoid factor level", "setting": "[1]; before Ganirelix", "result": 113, "unit": "kIU/L"},
      {"measurement": "partial Mayo score", "setting": "[2]; Ganirelix 2 mg daily, by 6 months (clinical remission)", "result": 0},
      {"measurement": "partial Mayo score", "setting": "[2]; before Ganirelix", "result": 3},
      {"measurement": "tendonitis of the elbow on ultrasound", "setting": "[3]", "result": "decrease"}
    ]}
  ]
}
